PubChem BioAssay AID1259407 (Chemical Carcinogenesis Research Information System (CCRIS), 2018)
Calls of active or inactive are those of the source. No rule for the calls is given here.

Tested on: CCRIS mutagenicity, Ames/micronucleus/aberration tests
Test: CCRIS mutagenicity studies
[1] = Test System: AMES SALMONELLA TYPHIMURIUM, Strain/Indicator: TA98, Metabolic Activation: NONE, Method: STANDARD PLATE

CCCCCCCC(=O)O
mutagenic call (Test System: AMES SALMONELLA TYPHIMURIUM, Strain/Indicator: TA97, Metabolic Activation: HAMSTER, LIVER, S-9, AROCLOR 1254 (10%), Method: PREINCUBATION): inactive; negative | mutagenic call (Test System: AMES SALMONELLA TYPHIMURIUM, Strain/Indicator: TA97, Metabolic Activation: HAMSTER, LIVER, S-9, AROCLOR 1254 (30%), Method: PREINCUBATION): inactive; negative | mutagenic call (Test System: AMES SALMONELLA TYPHIMURIUM, Strain/Indicator: TA97, Metabolic Activation: NONE, Method: PREINCUBATION): inactive; negative | mutagenic call (Test System: AMES SALMONELLA TYPHIMURIUM, Strain/Indicator: TA97, Metabolic Activation: RAT, LIVER, S-9, AROCLOR 1254 (10%), Method: PREINCUBATION): inactive; negative | mutagenic call (Test System: AMES SALMONELLA TYPHIMURIUM, Strain/Indicator: TA97, Metabolic Activation: RAT, LIVER, S-9, AROCLOR 1254 (30%), Method: PREINCUBATION): inactive; negative | mutagenic call (Test System: AMES SALMONELLA TYPHIMURIUM, Strain/Indicator: TA98, Metabolic Activation: HAMSTER, LIVER, S-9, AROCLOR 1254 (10%), Method: PREINCUBATION): inactive; negative | mutagenic call (Test System: AMES SALMONELLA TYPHIMURIUM, Strain/Indicator: TA98, Metabolic Activation: HAMSTER, LIVER, S-9, AROCLOR 1254 (30%), Method: PREINCUBATION): inactive; negative | mutagenic call (Test System: AMES SALMONELLA TYPHIMURIUM, Strain/Indicator: TA98, Metabolic Activation: NONE, Method: PREINCUBATION): inactive; negative | mutagenic call (Test System: AMES SALMONELLA TYPHIMURIUM, Strain/Indicator: TA98, Metabolic Activation: RAT, LIVER, S-9, AROCLOR 1254 (10%), Method: PREINCUBATION): inactive; negative | mutagenic call (Test System: AMES SALMONELLA TYPHIMURIUM, Strain/Indicator: TA98, Metabolic Activation: RAT, LIVER, S-9, AROCLOR 1254 (30%), Method: PREINCUBATION): inactive; negative | mutagenic call (Test System: AMES SALMONELLA TYPHIMURIUM, Strain/Indicator: TA100, Metabolic Activation: HAMSTER, LIVER, S-9, AROCLOR 1254 (10%), Method: PREINCUBATION): inactive; negative | mutagenic call (Test System: AMES SALMONELLA TYPHIMURIUM, Strain/Indicator: TA100, Metabolic Activation: HAMSTER, LIVER, S-9, AROCLOR 1254 (30%), Method: PREINCUBATION): inactive; negative | mutagenic call (Test System: AMES SALMONELLA TYPHIMURIUM, Strain/Indicator: TA100, Metabolic Activation: NONE, Method: PREINCUBATION): inactive; negative | mutagenic call (Test System: AMES SALMONELLA TYPHIMURIUM, Strain/Indicator: TA100, Metabolic Activation: RAT, LIVER, S-9, AROCLOR 1254 (10%), Method: PREINCUBATION): inactive; negative | mutagenic call (Test System: AMES SALMONELLA TYPHIMURIUM, Strain/Indicator: TA100, Metabolic Activation: RAT, LIVER, S-9, AROCLOR 1254 (30%), Method: PREINCUBATION): inactive; negative | mutagenic call (Test System: AMES SALMONELLA TYPHIMURIUM, Strain/Indicator: TA1535, Metabolic Activation: HAMSTER, LIVER, S-9, AROCLOR 1254 (10%), Method: PREINCUBATION): inactive; negative | mutagenic call (Test System: AMES SALMONELLA TYPHIMURIUM, Strain/Indicator: TA1535, Metabolic Activation: HAMSTER, LIVER, S-9, AROCLOR 1254 (30%), Method: PREINCUBATION): inactive; negative | mutagenic call (Test System: AMES SALMONELLA TYPHIMURIUM, Strain/Indicator: TA1535, Metabolic Activation: NONE, Method: PREINCUBATION): inactive; negative | mutagenic call (Test System: AMES SALMONELLA TYPHIMURIUM, Strain/Indicator: TA1535, Metabolic Activation: RAT, LIVER, S-9, AROCLOR 1254 (10%), Method: PREINCUBATION): inactive; negative | mutagenic call (Test System: AMES SALMONELLA TYPHIMURIUM, Strain/Indicator: TA1535, Metabolic Activation: RAT, LIVER, S-9, AROCLOR 1254 (30%), Method: PREINCUBATION): inactive; negative | mutagenic call (Test System: AMES SALMONELLA TYPHIMURIUM, Strain/Indicator: TA1537, Metabolic Activation: HAMSTER, LIVER, S-9, AROCLOR 1254 (10%), Method: PREINCUBATION): inactive; negative | mutagenic call (Test System: AMES SALMONELLA TYPHIMURIUM, Strain/Indicator: TA1537, Metabolic Activation: HAMSTER, LIVER, S-9, AROCLOR 1254 (30%), Method: PREINCUBATION): inactive; negative | mutagenic call (Test System: AMES SALMONELLA TYPHIMURIUM, Strain/Indicator: TA1537, Metabolic Activation: NONE, Method: PREINCUBATION): inactive; negative | mutagenic call (Test System: AMES SALMONELLA TYPHIMURIUM, Strain/Indicator: TA1537, Metabolic Activation: RAT, LIVER, S-9, AROCLOR 1254 (10%), Method: PREINCUBATION): inactive; negative | mutagenic call (Test System: AMES SALMONELLA TYPHIMURIUM, Strain/Indicator: TA1537, Metabolic Activation: RAT, LIVER, S-9, AROCLOR 1254 (30%), Method: PREINCUBATION): inactive; negative

CCN(C=O)N=O
mutagenic call (Test System: AMES SALMONELLA TYPHIMURIUM, Strain/Indicator: TA1535, Metabolic Activation: NONE, Method: STANDARD PLATE): active; positive | mutagenic call (Test System: E. COLI, Strain/Indicator: WU3610, Metabolic Activation: NONE, Method: SUSPENSION/PLATE): active; positive

CN(N=O)C(=O)Nc1ccccc1
mutagenic call (End Point: IN VITRO CHROMOSOMAL ABERRATIONS, Test System: CHINESE HAMSTER V79-E CELLS, Metabolic Activation: NONE): active; positive (structural changes)

COC(=O)c1ccco1
mutagenic call [1]: inactive; negative | mutagenic call (Test System: AMES SALMONELLA TYPHIMURIUM, Strain/Indicator: TA100, Metabolic Activation: NONE, Method: STANDARD PLATE): inactive; negative

COc1cccc(C=O)c1
mutagenic call (Test System: MOUSE LYMPHOMA, Strain/Indicator: L5178Y (TK+/TK-), Metabolic Activation: NONE, Method: SUSPENSION/PLATE): inactive; negative

CCCN(CCC)c1c([N+](=O)[O-])cc(C(F)(F)F)cc1[N+](=O)[O-]
mutagenic call (Test System: AMES SALMONELLA TYPHIMURIUM, Strain/Indicator: TA98, Metabolic Activation: LIVER S-9): inactive; negative | mutagenic call (Test System: AMES SALMONELLA TYPHIMURIUM, Strain/Indicator: TA98, Metabolic Activation: NONE): inactive; negative | mutagenic call (Test System: AMES SALMONELLA TYPHIMURIUM, Strain/Indicator: TA100, Metabolic Activation: LIVER S-9): inactive; negative | mutagenic call (Test System: AMES SALMONELLA TYPHIMURIUM, Strain/Indicator: TA100, Metabolic Activation: NONE): inactive; negative | mutagenic call (Test System: AMES SALMONELLA TYPHIMURIUM, Strain/Indicator: TA1535, Metabolic Activation: LIVER S-9): inactive; negative | mutagenic call (Test System: AMES SALMONELLA TYPHIMURIUM, Strain/Indicator: TA1535, Metabolic Activation: NONE): inactive; negative | mutagenic call (Test System: AMES SALMONELLA TYPHIMURIUM, Strain/Indicator: TA1537, Metabolic Activation: LIVER S-9): inactive; negative | mutagenic call (Test System: AMES SALMONELLA TYPHIMURIUM, Strain/Indicator: TA1537, Metabolic Activation: NONE): inactive; negative | mutagenic call (Test System: AMES SALMONELLA TYPHIMURIUM, Strain/Indicator: TA1538, Metabolic Activation: LIVER S-9): inactive; negative | mutagenic call (Test System: AMES SALMONELLA TYPHIMURIUM, Strain/Indicator: TA1538, Metabolic Activation: NONE): inactive; negative | mutagenic call (Test System: CHINESE HAMSTER V-79 CELLS, Strain/Indicator: HGPRT, Metabolic Activation: LIVER S-9): inactive; negative | mutagenic call (Test System: CHINESE HAMSTER V-79 CELLS, Strain/Indicator: HGPRT, Metabolic Activation: NONE): inactive; negative | mutagenic call (Test System: CHO-KI CELLS, Strain/Indicator: HGPRT, Metabolic Activation: LIVER S-9): inactive; negative | mutagenic call (Test System: CHO-KI CELLS, Strain/Indicator: HGPRT, Metabolic Activation: NONE): inactive; negative | mutagenic call (Test System: UDS HELA CELLS, Metabolic Activation: LIVER S-9): inactive; negative | mutagenic call (Test System: UDS HELA CELLS, Metabolic Activation: NONE): inactive; negative | mutagenic call (Test System: UDS RAT HEPATOCYTES, Metabolic Activation: NONE): inactive; negative

OC1C2OC2=C2C=c3ccc4cccc5ccc(c3c54)C2C1O (stereo not drawn)
mutagenic call (Test System: CHINESE HAMSTER V-79, Strain/Indicator: V-79/8-AZAGUANINE, Metabolic Activation: NONE, Method: STANDARD PLATE): active; positive

Fc1ccc(F)c2c1ccc1ncccc12
mutagenic call (Test System: AMES SALMONELLA TYPHIMURIUM, Strain/Indicator: TA100, Metabolic Activation: RAT, LIVER, S-9, PHENOBARBITAL AND 5,6-BENZOFLAVONE, Method: PREINCUBATION): active; positive

COc1cc(NC(C)=O)ccc1NC(C)=O
mutagenic call [1]: inactive; negative | mutagenic call (Test System: AMES SALMONELLA TYPHIMURIUM, Strain/Indicator: TA98, Metabolic Activation: RAT, LIVER, S-9, AROCLOR 1254, Method: STANDARD PLATE): inactive; negative

COc1ccc2c(c1)-c1nccc3cc(OC)c(OC)c(c13)C2=O
mutagenic call (Test System: AMES SALMONELLA TYPHIMURIUM, Strain/Indicator: TA98, Metabolic Activation: RAT, LIVER, S-9, PHENOBARBITAL AND BETA-NAPHTHOFLAVONE, Method: PREINCUBATION): active; positive
